Three molecules from patent publication US20080009545A1, “Anticancer agents” (The Ohio State University Research Foundation, priority 2006, published 2008) can be followed below.

For one test, the target named is Bcl-xL (Homo sapiens, UniProt Q07817). Description: Competitive fluorescence polarization assay, Bak BH3 peptide binding to Bcl-xL. The conditions noted are these: for activity in inhibiting Bak peptide-Bcl-xL binding: even at 100 μM. The method, then: Competitive fluorescence polarization assay—The binding affinity of the test agent to Bcl-XL was analyzed by a competitive fluorescence polarization assay in which the ability of the agent to displace the binding of a Bak BH3-domain peptide to either Bcl-2 or Bcl-XL was determined. Flu-BakBH3, a Bak-BH3 peptide labeled at the NH2 terminus with fluorescein, was purchased from Genemed Synthesis (San Francisco, Calif.). COOH-terminal-truncated, His-tagged Bcl-XL was purchased from EMD Biosciences (San Diego, Calif.) and soluble glutathione S-transferase-fused Bcl-2 was obtained from Santa Cruz Biotechnology. The binding analysis was carried out in a dual-path length quartz cell with readings taken at […] at room temperature using a luminescence spectrometer according to an established procedure (19).
Sequence of Bcl-xL (Q07817 1-212 limits assumed): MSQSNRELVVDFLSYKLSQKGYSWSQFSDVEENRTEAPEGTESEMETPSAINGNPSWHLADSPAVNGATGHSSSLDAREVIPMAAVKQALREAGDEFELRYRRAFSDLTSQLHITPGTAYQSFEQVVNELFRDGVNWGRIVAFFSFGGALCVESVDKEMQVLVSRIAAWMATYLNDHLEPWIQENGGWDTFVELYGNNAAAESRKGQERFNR
(§1) Determination of IC50 values—Data from cell viability and fluorescence polarization assays were analyzed by using the CalcuSyn software (Biosoft, Ferguson, Mo.) to determine IC50 values, in which the calculation was based on the medium-effect equation [i.e., log(fa/fu)=m log(D)−m log(Dm), where fa and fu denote fraction affected and unaffected, respectively; m represents the Hill-type coefficient signifying the sigmoidicity of the dose-effect curve; and D and Dm are the dose used and IC50, respectively.
A general note: In fluorescence polarisation assays a small probe gives low polarisation when free and higher when bound to something large.

In a further test the test system is PC-3 cells. As to the kind of experiment: MTT cell viability, PC-3 cells. Type of test: cell-based, human. The following applies: even at 100 μM, 24 h. The method, then: (§2) Cell culture—LNCaP androgen-dependent (p53+/+) and PC-3 androgen-nonresponsive (P53−/−) prostate cancer cells were obtained from the American Type Culture Collection (Manassas, Va.). The preparation of the stable Bcl-xL-overexpressing LNCaP clone B3 (LNCaP/B3) was previously described (18). PC-3, LNCaP, and LNCaP/B3 cells were maintained in RPMI 1640 supplemented with 10% fetal bovine serum (FBS) at 37° C. in a humidified incubator containing 5% carbon dioxide. Normal human prostate epithelial (PrEC) cells were purchased from Cambrex Bio Science Walkersville, Inc. (East Tutherford, N.J.). Cells were maintained in Prostate Epithelial Cell Medium with growth supplements at 37° C. in a humidified incubator containing 5% carbon dioxide. The recommended seeding density for subculture is 2,500 cells/cm^2. It takes 6-9 days from subculture to attain confluency.
(§3) Cell viability analysis—The effect of individual test agents on cell viability was assessed by using the MTT assay in 6 to 12 replicates. PC3, LNCaP, and B3-LNCaP cells were seeded and incubated in poly-p-lysine-coated, 96-well, flat-bottomed plates in RPMI 1640 medium supplemented with 10% FBS medium for 24 hours. PrEC cells were seeded at the recommend density in 96-well, flat-bottomed plates in Prostate Epithelial Cell Medium with growth supplements for 3 days. […] Absorbance at 570 nm was determined on a plate reader.
as §1

A further test has as its system LNCaP cells. As to the kind of experiment: MTT cell viability, LNCaP cells. It counts as cell-based, human. The conditions noted are these: even at 100 μM, 24 h. Here is the method: as §2, §3, §1
The subject of another test is PrEC cells. Description: MTT cell viability, normal prostate epithelial cells (PrECs). Type of test: cell-based, human. The conditions noted are these: 24 h, Prostate Epithelial Cell Basal Medium with growth supplements. The method, then:
as §2
Cell viability analysis—The effect of individual test agents on cell viability was assessed by using the MTT assay in 6 to 12 replicates. PC3, LNCaP, and B3-LNCaP cells were seeded and incubated in poly-p-lysine-coated, 96-well, flat-bottomed plates in RPMI 1640 medium supplemented with 10% FBS medium for 24 hours. PrEC cells were seeded at the recommend density in 96-well, flat-bottomed plates in Prostate Epithelial Cell Medium with growth supplements for 3 days. All cells were exposed to various concentrations of test agents dissolved in ethanol (for α-tocopherol, α-tocopheryl succinate, and TS-3) or DMSO (all other test agents used) with a final concentration of 0.1% in serum-free RPMI 1640 medium for PC3, LNCaP, and LNCaP/B3 cells or in Prostate Epithelial Cell Basal Medium with growth supplements for PrEC cells. Controls received DMSO or ethanol vehicle at a concentration equal to that in drug-treated cells. The medium was removed, replaced by 200 μL of 0.5 mM MTT in 10% FBS-containing RPMI 1640 medium, and cells were incubated in the CO2 incubator at 37° C. for 2 h. […] Absorbance at 570 nm was determined on a plate reader.

`Cc1c(C)c2c(c(C)c1OC(=O)CCC(=O)O)CCC(C)(C)O2` [TS-3, succinic acid mono-(2,2,5,7,8-pentamethyl-chroman-6-yl)ester]: on Bcl-xL, the “Bcl-xL binding affinity (effect of structural change)” value is “abrogated the binding affinity” and the “activity in inhibiting Bak peptide-Bcl-xL binding” value is “lacked appreciable activity”. Besides, the “activity in suppressing cell viability” value with PC-3 cells was “lacked appreciable activity”. In the test with LNCaP cells, the “activity in suppressing cell viability” value is on record as “lacked appreciable activity”.

Consider `Cc1c(C)c2c(c(C)c1O)CCC(C)(CCCC(C)CCCC(C)C)O2` (centres unmarked) [TS-4, 2-(4,8-dimethyl-nonyl)-2,5,7,8-tetramethyl-chroman-6-ol], for which, on Bcl-xL, the “activity in inhibiting Bak peptide-Bcl-xL binding” value is “lacked appreciable activity”. Further, the “activity in suppressing cell viability” value in the test with PC-3 cells and in the test on LNCaP cells was “lacked appreciable activity” each time.

As to `Cc1c(C)c2c(c(C)c1OCCC(=O)O)CCC(C)(CCCC(C)CCCC(C)C)O2` (centres unmarked) [TS-5, 3-[2,5,7,8-tetramethyl-2-(4,8-dimethyl-nonyl)-chroman-6-yloxy]propionic acid], the “antiproliferative effect on normal prostate epithelial cells” value in the test with PrEC cells is on record as “resistant”.
